Results taken from ChEMBL document CHEMBL2202954, “The effect of PLC-γ2 inhibitors on the growth of human tumour cells” (2012).

Columns and labels:
Assay type in all cases: functional
UACC-257 = assay: Cytotoxicity against human UACC257 cells assessed as cellular growth at 10 uM by SRB assay
HT-29 = assay: Cytotoxicity against human HT-29 cells assessed as cellular growth at 10 uM by SRB assay
RPMI-8226 = assay: Cytotoxicity against human RPMI8226 cells assessed as cellular growth at 10 uM by SRB assay
SNB-75 = assay: Cytotoxicity against human SNB75 cells assessed as cellular growth at 10 uM by SRB assay
HCT-15 = assay: Cytotoxicity against human HCT15 cells assessed as cellular growth at 10 uM by SRB assay
OVCAR-5 = assay: Cytotoxicity against human OVCAR5 cells assessed as cellular growth at 10 uM by SRB assay
NCI-H322M = assay: Cytotoxicity against human NCI-H322M cells assessed as cellular growth at 10 uM by SRB assay
SF-268 = assay: Cytotoxicity against human SF268 cells assessed as cellular growth at 10 uM by SRB assay
786-0 = assay: Cytotoxicity against human 786-0 cells assessed as cellular growth at 10 uM by SRB assay
LOX IMVI = assay: Cytotoxicity against human LOXIMVI cells assessed as cellular growth at 10 uM by SRB assay
KM12 = assay: Cytotoxicity against human KM12 cells assessed as cellular growth at 10 uM by SRB assay
PC-3 = assay: Cytotoxicity against human PC3 cells assessed as cellular growth at 10 uM by SRB assay
MDA-MB-468 = assay: Cytotoxicity against human MDA-MB-468 cells assessed as cellular growth at 10 uM by SRB assay
HOP-62 = assay: Cytotoxicity against human HOP62 cells assessed as cellular growth at 10 uM by SRB assay
NCI-H522 = assay: Cytotoxicity against human NCI-H522 cells assessed as cellular growth at 10 uM by SRB assay
MDA-MB-435 = assay: Cytotoxicity against human MDA-MB-435 cells assessed as cellular growth at 10 uM by SRB assay
UACC-62 = assay: Cytotoxicity against human UACC62 cells assessed as cellular growth at 10 uM by SRB assay
SR = assay: Cytotoxicity against human SR cells assessed as cellular growth at 10 uM by SRB assay
OVCAR-4 = assay: Cytotoxicity against human OVCAR4 cells assessed as cellular growth at 10 uM by SRB assay

SMILES	Activity (UACC-257) [%]	Activity (HT-29) [%]	Activity (RPMI-8226) [%]	Activity (SNB-75) [%]	Activity (HCT-15) [%]	Activity (OVCAR-5) [%]	Activity (NCI-H322M) [%]	Activity (SF-268) [%]	Activity (786-0) [%]	Activity (LOX IMVI) [%]	Activity (KM12) [%]	Activity (PC-3) [%]	Activity (MDA-MB-468) [%]	Activity (HOP-62) [%]	Activity (NCI-H522) [%]	Activity (MDA-MB-435) [%]	Activity (UACC-62) [%]	Activity (SR) [%]	Activity (OVCAR-4) [%]
O=C(Nc1nc2ccc(Cl)cc2s1)c1ccc(Cl)cc1Cl	95.43	94.25	91.09	114.42	100.27	98.11	105.38	111.47	95.62	98.46	110.91	97.1	105.42	106.54	98.66	94.59	96.19	98.17	
COc1cccc(C(=O)Nc2nc3ccc(Cl)cc3s2)c1	94.74	80.12	84.4	109.63	71.29	108.78	104.25	106.92	98.19	94.46	49.84	78.16	61.26	104.17	78.29	34	87.44	61.65	
Cc1ccc(S(=O)(=O)Oc2ccc(-c3cnc4ccccc4n3)cc2)cc1	102.87	89.62	88.46	117.79	93.92	102.67	113.67	118.59	96.77	99.82	105.85	90.9	107.13	114.36	93.02	96.62	94.5	93.66	
Nc1c(C(=O)Nc2ccccc2)sc2nc3c(cc12)C(=O)CCC3	52.83	4.34	30.21	12.41	27.18	59.92	67.12	53.38	36.19	51.19	19.9	21.62	4.62	39.88	-33.85	-5.95	44.06	21.95	
Cc1cc(C)c(NC(=O)c2sc3nc4c(cc3c2N)C(=O)CCC4)c(C)c1	48.69	0.48	31.83	0	31.78		56.34	38.6	30.39	50.61	27.28	23.46	-27.16	36.92	-14.71	-34.35	23.22	10.54	
Cc1ccccc1NC(=O)c1sc2nc3c(cc2c1N)C(=O)CCC3	60.99	21.08	67.19	13.12	32.76	80.78	71.39	65.36	51.56	47.43	19.22	30.33	-4.56	38.2	12.53	-12.89	36.9	34.35	67.57
Cc1ccc(NC(=O)c2sc3nc4c(cc3c2N)C(=O)CCC4)cc1Cl	95.07	97.53	104.81	110.07	97.31	100.98	109.22	115.11	103.81	99.16	115.57	103.74	104.98	110.02	96.14	99.15	108.17	105.35	
Nc1c(C(=O)Nc2cccc(Cl)c2)sc2nc3c(cc12)C(=O)CCC3	68.88	23.87	51.81	25.91	32.41	58.33	71.82	63.09	47.72	46.08	21.64	29.1	-10.56	47.04	14.59	-39.08	43.7	39.11	60.44
